From the supplement of paper PMC12076712

Legend:
Test in all cases: pIC50, kinobeads binding competition
[1] = biological target: T1, MASTL (UniProt Q96GX5)
T1 sequence (whole entry): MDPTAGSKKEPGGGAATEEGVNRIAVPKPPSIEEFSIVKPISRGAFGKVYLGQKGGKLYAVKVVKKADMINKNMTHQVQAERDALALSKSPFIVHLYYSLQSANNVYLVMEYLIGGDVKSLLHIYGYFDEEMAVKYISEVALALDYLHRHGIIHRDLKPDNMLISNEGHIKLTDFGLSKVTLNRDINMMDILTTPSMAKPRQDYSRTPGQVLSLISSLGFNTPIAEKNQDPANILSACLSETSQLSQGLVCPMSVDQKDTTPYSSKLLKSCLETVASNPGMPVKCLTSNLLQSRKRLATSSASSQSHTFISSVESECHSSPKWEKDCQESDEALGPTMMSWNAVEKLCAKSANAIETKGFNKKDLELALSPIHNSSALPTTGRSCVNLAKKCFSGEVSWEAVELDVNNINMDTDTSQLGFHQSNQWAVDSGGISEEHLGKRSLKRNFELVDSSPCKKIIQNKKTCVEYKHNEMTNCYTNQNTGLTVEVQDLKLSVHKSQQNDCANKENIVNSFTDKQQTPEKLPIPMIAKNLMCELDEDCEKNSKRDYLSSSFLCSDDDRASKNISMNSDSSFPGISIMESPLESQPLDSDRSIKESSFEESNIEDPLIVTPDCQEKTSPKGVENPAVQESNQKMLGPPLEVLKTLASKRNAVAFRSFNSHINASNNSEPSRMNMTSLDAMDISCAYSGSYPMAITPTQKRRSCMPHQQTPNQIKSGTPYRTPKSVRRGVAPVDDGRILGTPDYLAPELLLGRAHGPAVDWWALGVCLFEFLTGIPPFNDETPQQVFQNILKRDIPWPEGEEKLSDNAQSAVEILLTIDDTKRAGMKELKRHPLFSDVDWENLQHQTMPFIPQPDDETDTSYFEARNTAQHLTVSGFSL
Procedure, shortened: (§1)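 Jurkat cells were exposed alive to nine compound concentrations (top 30 μM, 1:4 steps) or vehicle for 60 min at 37 °C and then lysed. In a second format, nine concentrations (top 30 μM, 1:5 steps) were incubated for 60 min at 4 °C with Jurkat lysate or with a 1:1:1:1 lysate mix of HEK293, K-562, HepG2 and placenta. Proteins captured on Kinobeads were digested and quantified by TMT10 LC-MS/MS. pIC50 values were derived from logistic dose-response fits (R drc package) of fold changes relative to vehicle, in biological duplicates.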

[2] = biological target: DAPK1 (UniProt P53355); settings: cell material: Lysate mix
Procedure, shortened: as §1

[3] = biological target: UniProt Q04912; settings: cell material: Lysate mix
Procedure, shortened: as §1

[4] = biological target: BTK (UniProt Q06187); settings: cell material: Lysate mix
Procedure, shortened: as §1

[5] = biological target: T2, IRAK3 (UniProt Q9Y616); settings: cell material: Lysate mix
T2 sequence (whole entry): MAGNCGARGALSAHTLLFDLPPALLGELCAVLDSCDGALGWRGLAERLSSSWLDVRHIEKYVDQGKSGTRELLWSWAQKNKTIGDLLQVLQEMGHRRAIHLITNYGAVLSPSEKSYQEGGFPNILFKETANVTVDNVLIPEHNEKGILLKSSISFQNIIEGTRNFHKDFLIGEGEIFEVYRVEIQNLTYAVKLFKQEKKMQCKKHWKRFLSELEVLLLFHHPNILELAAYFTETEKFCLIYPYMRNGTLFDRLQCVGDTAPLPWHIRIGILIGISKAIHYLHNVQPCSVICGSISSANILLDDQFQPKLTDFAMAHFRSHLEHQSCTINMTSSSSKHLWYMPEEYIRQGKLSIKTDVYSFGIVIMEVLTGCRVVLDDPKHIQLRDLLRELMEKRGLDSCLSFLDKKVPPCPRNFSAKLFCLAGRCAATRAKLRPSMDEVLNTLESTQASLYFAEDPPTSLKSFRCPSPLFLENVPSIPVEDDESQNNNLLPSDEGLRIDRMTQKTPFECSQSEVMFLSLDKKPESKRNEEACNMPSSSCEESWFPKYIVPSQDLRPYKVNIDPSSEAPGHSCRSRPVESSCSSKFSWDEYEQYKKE
Procedure, shortened: as §1

[6] = biological target: UniProt Q16512
Procedure, shortened: as §1

[7] = biological target: CLK3 (UniProt P49761)
Procedure, shortened: as §1

[8] = biological target: UniProt Q02779; settings: cell material: Lysate mix
Procedure, shortened: as §1

[9] = biological target: UniProt P16234; settings: cell material: Lysate mix
Procedure, shortened: as §1

Chain of UniProt Q04912 (Q04912 whole entry): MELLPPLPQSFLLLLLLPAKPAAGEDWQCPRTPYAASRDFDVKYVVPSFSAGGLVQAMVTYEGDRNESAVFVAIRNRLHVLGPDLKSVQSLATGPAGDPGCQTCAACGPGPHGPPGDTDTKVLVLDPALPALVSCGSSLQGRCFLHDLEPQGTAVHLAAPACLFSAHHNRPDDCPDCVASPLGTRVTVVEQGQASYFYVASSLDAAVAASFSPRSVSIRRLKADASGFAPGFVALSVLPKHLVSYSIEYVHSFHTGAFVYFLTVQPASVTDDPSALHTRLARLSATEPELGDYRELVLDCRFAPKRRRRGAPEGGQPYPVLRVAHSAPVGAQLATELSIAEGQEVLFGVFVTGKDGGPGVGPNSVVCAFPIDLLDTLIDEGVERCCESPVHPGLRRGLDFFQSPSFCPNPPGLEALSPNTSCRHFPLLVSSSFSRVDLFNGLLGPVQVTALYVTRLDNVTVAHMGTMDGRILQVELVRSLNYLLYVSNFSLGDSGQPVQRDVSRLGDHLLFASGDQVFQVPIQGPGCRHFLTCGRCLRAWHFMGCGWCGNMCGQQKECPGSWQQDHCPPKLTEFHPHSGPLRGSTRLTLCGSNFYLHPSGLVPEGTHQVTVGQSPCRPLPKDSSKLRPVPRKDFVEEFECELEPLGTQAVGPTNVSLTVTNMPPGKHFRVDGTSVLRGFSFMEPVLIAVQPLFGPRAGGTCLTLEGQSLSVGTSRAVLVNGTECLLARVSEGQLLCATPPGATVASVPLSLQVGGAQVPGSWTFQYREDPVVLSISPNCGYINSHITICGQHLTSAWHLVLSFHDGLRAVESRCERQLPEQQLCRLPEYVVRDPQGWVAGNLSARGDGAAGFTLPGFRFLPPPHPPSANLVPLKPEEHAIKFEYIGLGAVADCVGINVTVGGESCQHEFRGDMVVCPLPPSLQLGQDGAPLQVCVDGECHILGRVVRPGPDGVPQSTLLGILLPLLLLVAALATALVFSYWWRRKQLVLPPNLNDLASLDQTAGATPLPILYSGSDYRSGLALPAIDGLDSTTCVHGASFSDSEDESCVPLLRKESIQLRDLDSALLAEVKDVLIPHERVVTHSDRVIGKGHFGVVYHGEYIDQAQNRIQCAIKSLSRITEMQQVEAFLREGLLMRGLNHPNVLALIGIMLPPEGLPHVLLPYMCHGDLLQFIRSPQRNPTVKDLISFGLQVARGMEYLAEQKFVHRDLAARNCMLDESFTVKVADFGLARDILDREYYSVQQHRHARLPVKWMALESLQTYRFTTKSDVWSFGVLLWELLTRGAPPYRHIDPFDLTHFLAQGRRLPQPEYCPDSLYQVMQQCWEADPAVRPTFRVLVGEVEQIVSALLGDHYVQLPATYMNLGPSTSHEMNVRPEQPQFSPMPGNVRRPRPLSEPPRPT
Chain of UniProt Q02779 (Q02779 whole entry, looked up): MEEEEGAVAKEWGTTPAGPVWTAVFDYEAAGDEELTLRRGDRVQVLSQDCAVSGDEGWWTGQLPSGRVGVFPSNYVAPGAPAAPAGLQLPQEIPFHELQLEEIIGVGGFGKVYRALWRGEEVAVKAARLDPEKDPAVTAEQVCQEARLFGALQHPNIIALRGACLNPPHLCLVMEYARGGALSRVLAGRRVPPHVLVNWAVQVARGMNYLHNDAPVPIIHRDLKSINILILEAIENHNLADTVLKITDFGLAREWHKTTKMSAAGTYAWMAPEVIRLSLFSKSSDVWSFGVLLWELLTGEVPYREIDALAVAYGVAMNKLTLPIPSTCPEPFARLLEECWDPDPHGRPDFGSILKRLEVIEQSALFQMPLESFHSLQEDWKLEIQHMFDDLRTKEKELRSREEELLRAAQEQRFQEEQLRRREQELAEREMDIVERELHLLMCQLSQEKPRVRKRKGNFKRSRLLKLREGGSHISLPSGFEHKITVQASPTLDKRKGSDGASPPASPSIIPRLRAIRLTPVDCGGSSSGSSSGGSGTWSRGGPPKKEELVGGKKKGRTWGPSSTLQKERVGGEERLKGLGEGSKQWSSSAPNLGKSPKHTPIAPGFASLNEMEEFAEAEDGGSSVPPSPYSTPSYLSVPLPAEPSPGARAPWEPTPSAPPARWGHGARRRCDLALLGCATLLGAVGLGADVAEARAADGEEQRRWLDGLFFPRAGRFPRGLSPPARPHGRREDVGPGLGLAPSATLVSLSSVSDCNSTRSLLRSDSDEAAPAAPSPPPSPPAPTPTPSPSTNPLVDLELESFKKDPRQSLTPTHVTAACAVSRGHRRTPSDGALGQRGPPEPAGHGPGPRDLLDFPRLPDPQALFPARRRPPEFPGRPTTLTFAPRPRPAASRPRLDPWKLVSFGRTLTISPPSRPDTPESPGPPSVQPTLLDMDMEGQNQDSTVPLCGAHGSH
Chain of CLK3 (P49761 whole entry, looked up): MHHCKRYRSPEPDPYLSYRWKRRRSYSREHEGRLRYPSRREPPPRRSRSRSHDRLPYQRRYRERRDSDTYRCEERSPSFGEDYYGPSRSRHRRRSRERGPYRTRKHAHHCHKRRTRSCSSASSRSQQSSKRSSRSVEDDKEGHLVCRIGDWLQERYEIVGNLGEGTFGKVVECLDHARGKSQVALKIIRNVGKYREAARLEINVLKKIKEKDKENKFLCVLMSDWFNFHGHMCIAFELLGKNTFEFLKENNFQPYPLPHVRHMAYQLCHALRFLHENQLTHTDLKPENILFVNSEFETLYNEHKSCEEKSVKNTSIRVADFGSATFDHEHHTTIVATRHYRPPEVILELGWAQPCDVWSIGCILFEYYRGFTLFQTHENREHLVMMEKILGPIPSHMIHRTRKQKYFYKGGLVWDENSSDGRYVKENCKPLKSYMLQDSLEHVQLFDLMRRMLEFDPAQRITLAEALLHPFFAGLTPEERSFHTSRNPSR
Chain of UniProt Q16512 (Q16512 whole entry, looked up): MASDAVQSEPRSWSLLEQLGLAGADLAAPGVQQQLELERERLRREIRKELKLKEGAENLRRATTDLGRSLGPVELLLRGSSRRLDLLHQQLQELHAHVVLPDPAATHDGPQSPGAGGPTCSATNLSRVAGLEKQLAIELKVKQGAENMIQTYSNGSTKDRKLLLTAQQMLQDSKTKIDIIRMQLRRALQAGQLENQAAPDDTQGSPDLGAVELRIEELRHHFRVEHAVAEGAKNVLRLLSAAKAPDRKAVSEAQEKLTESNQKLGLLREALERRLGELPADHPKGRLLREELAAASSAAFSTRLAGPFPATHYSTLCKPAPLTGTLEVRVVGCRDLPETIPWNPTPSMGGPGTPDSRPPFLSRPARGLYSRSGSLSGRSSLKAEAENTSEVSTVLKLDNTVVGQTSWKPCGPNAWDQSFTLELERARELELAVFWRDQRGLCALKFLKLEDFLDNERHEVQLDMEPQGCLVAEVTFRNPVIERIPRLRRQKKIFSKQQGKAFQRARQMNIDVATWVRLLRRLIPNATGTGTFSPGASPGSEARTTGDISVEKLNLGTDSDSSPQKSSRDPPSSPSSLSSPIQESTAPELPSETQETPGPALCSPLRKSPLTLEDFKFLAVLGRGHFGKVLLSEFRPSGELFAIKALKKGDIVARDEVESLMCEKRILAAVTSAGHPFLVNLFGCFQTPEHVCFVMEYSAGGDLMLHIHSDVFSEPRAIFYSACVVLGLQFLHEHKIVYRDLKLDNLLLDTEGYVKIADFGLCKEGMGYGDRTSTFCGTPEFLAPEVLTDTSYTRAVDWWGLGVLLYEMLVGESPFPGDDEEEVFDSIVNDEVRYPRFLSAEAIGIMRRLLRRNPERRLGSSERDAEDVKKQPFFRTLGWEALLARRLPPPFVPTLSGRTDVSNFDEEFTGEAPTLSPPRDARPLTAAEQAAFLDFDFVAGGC
Chain of UniProt P16234 (P16234 whole entry): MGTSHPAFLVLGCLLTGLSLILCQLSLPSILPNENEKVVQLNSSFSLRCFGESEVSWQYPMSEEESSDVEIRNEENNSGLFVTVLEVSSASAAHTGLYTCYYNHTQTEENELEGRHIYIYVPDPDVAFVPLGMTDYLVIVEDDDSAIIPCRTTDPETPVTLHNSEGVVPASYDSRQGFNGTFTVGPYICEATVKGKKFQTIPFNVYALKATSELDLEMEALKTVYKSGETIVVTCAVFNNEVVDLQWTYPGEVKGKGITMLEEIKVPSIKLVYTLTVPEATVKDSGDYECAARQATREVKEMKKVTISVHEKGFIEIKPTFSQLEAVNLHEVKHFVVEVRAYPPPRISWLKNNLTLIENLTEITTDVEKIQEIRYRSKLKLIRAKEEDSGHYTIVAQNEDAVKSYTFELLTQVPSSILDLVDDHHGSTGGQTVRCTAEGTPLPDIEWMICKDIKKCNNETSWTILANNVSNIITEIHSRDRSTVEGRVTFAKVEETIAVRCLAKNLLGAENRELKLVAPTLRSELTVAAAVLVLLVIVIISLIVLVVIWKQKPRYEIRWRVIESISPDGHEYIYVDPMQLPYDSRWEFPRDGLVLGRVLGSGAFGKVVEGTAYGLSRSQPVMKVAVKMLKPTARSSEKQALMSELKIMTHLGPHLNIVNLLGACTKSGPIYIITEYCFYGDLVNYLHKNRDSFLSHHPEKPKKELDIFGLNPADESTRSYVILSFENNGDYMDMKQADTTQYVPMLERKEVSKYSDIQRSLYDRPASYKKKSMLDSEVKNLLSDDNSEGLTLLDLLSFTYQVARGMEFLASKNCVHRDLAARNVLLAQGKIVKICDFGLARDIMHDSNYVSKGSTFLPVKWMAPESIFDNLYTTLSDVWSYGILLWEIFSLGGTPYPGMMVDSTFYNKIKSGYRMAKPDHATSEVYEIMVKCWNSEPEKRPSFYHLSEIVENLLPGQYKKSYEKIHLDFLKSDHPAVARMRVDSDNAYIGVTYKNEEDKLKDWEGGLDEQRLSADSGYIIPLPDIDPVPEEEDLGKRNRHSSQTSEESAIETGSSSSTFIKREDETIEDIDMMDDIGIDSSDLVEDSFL

pIC50 [2]	pIC50 [3]	pIC50 [4]	pIC50 [5]	pIC50 ([6]; cell material: Lysate mix)	pIC50 ([7]; cell material: Lysate mix)	pIC50 [8]	pIC50 [9]	pIC50 ([1]; cell material: Lysate mix)	Structure (SMILES)	pIC50 ([1]; cell material: Jurkat cells)	pIC50 ([6]; cell material: Jurkat lysate)	pIC50 ([7]; cell material: Jurkat lysate)	pIC50 ([1]; cell material: Jurkat lysate)	pIC50 ([6]; cell material: Jurkat cells)
< 4.52	< 4.52	< 4.52	< 4.52	< 4.52	< 4.52	< 4.52	< 4.52		O=C(NCCNC(=O)c1cc(Nc2cc(C3CC3)[nH]n2)nc(N2CCN(Cc3ccc(S(=O)(=O)F)cc3)CC2)n1)OC1CC/C=C/CCC1 (configuration not stated)	6.1	< 4.52	< 4.52		
< 4.52	< 4.52	< 4.52	< 4.52	< 4.52	< 4.52	< 4.52	< 4.52		C#CCNC(=O)c1cc(Nc2cc(C)[nH]n2)nc(N2CCN(Cc3ccc(S(=O)(=O)F)cc3)CC2)n1					

The next lines start with the compound.

Structure (SMILES)	pIC50 [2]	pIC50 [3]	pIC50 [4]	pIC50 [5]	pIC50 ([6]; cell material: Lysate mix)	pIC50 ([7]; cell material: Lysate mix)	pIC50 [8]	pIC50 [9]	pIC50 ([1]; cell material: Lysate mix)	pIC50 ([1]; cell material: Jurkat cells)	pIC50 ([6]; cell material: Jurkat lysate)	pIC50 ([7]; cell material: Jurkat lysate)	pIC50 ([1]; cell material: Jurkat lysate)	pIC50 ([6]; cell material: Jurkat cells)
Cc1cc(Nc2cc(C(=O)NCCNC(=O)OC3CC/C=C/CCC3)nc(N3CCN(Cc4ccc(S(=O)(=O)F)cc4)CC3)n2)n[nH]1 (configuration not stated)	< 4.52	< 4.52	< 4.52		< 4.52		< 4.52		< 4.52					
CCNC(=O)c1cc(Nc2cc(C3CC3)[nH]n2)nc(N2CCN(Cc3ccc(S(=O)(=O)F)cc3)CC2)n1	4.6	< 4.52				4.85	5.14	< 4.52	6.85					
CCNC(=O)c1cc(Nc2cc(C)[nH]n2)nc(N2CCN(Cc3ccc(S(=O)(=O)F)cc3)CC2)n1		4.54	< 4.52		< 4.52	< 4.52	< 4.52							
C#CCNC(=O)c1cc(Nc2cc(C3CC3)[nH]n2)nc(N2CCN(Cc3ccc(S(=O)(=O)F)cc3)CC2)n1	< 4.52			< 4.52	< 4.52	5.15		< 4.52	6.74	6.15	< 4.52	< 4.52	6.03	5.36
